Laboratory results as given in patent publication US11136345B2, “Large scale preparation of pseudo-trisaccharide aminoglycosides and of intermediates thereof” (Eloxx Pharmaceuticals Ltd., priority 2017, dated 2021).

System: Rett Syndrome mutation R270X
Assay: Read-through activity in cell-free assay (firefly/renilla luciferase reporter, in vitro transcription/translation)
Format: biochemical, rabbit
Conditions: cell-free dose-response, concentration range 0-12 μM; firefly/renilla expression ratio normalized to WT and non-treated control (FIGS. 6A-B)
Experimental: The plasmids were transcribed in vitro and translated using rabbit reticulocytes (TNT mix) and then tested for the expression levels of the firefly and renilla luciferases. WT plasmids expressed both firefly and renilla luciferases while mutant plasmids expressed only the renilla luciferase due to the stop codon found in the inserted sequence. The read-through assays were conducted for the tested compounds and the controls by adding the compounds to the in vitro transcription/translation reaction mixture. In case the compounds exerted suppression of the premature nonsense/stop codon mutation, the firefly luciferase was expressed and a fold-change in its expression was observed.
Read-through activity of Rett Syndrome mutation R270X was tested using ELX-02 that was manufactured in Example 1 and 2, and the mutation suppression was calculated based on firefly/renilla expression ratio values, and normalized with respect to the expression level of the WT and the control sample (no tested compound).
FIGS. 6A-B present the results of Rett Syndrome mutation R270X nonsense mutation suppression dose-response cell-free assays conducted for ELX-02 according to embodiments of the present invention, at a concentration rage of 0-12 μM.

C[C@H](N)[C@H]1O[C@@H](OC2C(O)[C@H](N)CC(N)[C@H]2O[C@H]2OC([C@@H](C)O)[C@@H](O)C(O)C2N)C(O)C1O (stereo partly shown) [ELX-02]
read-through of the Rett Syndrome mutation, R270X: dose-dependent increase
